Consider two compounds from US20160128982A1, “ANTIMICROBIAL COMPOSITIONS AND METHODS OF USE” (DERMCARE-VET PTY LTD, priority 2013, published 2016).

The structures appear in SMILES notation.

Experiment [1] relates to M. pachydermatis isolates. Kind of experiment: Agar dilution MIC and FICI, isolates from dogs (Example 3). To be noted: miconazole alone. It counts as cell-based, Malassezia pachydermatis. The procedure:
(§1) The miconazole was initially dissolved in propylene glycol but dilutions were prepared by diluting this solution with water. […] Two isolates of Staphylococcus pseudintermedins of different origin were used. After incubation the plates were examined to determine the lowest concentration that inhibited growth of the microbe. The concentrations were used to calculate the Fractional Inhibitory Concentration Index (FICI) which is a measure of synergism between the components in the combination. The FICI is calculated using the following equations: […]≦0.5 Indicates synergy between components FICI>0.5-4.0 indicates no interaction between components FICI>4.0 indicates antagonism between components The procedure from Example 2 was repeated with different bacterial and fungal isolates obtained from dogs with bacterial or fungal infections. Eight S. pseudintermedius isolates obtained from eight different dogs and three M. pachydermatis isolates from three different dogs were analysed.

Experiment [2] relates to Staphylococcus pseudintermedius. Kind of experiment: Well diffusion, zone of inhibition on Mueller-Hinton agar. It is filed as cell-based. To be noted: 37° C. 18 to 24 hours; for Zone of Inhibition: 50 μL per well. The procedure:
(§2) 1. To determine whether propylene glycol was a suitable solvent to solubilize miconazole. A Mueller-Hinton agar (MH) plate containing a well was inoculated with Staphylococcus pseudintermedius and a Sabouraud dextrose agar (SAB) plate containing a 6 mm well was inoculated with Malassezia pachydermatis. The wells were filled with 50 μL propylene glycol and the MH plate were incubated at 37° C. for 18 to 24 hours and the SAB plate was incubated at 30 to 35° C. for 72 hours. The plates were then observed for any inhibition of microbial growth around the well.
(§3) 2. To determine suitable concentrations of miconazole and PHMB, MH agar plates containing wells were inoculated with S. pseudintermedius and SAB plates containing wells were inoculated with M. pachydermatis. The wells were filled with 50 μL of varying concentrations of miconazole or PHMB. The MH plates were incubated at 37° C. for 18 to 24 hours and the SAB plates were incubated at 30 to 35° C. for 48 hours.
(§4) After incubation, the diameter of the zone of inhibition around the well was measured.

For experiment [3] the test system is unchanged. Kind of experiment: Agar dilution MIC and FICI (Example 2). It is filed as cell-based. As for the experimental part:
(§5) The MIC of PHMB, miconazole and mixtures of PHMB and miconazole were determined by adding varying concentrations of each component or their combination to molten Mueller-Hinton agar and SAB agar. The miconazole was initially dissolved in propylene glycol but dilutions were prepared by diluting this solution with water.
(§6) The concentrations of miconazole, PHMB or combination of PHMB and miconazole tested included:
(§7) A drop of microbial suspension containing one of: • a) Staphylococcus pseudintermedius and • b) Candida albicans
(§8) was added to a MH agar plate and SAB plate respectively of each concentration of each concentration of miconazole, PHMB and combinations thereof and the MH plates were incubated for 24 to 48 hours at 37° C. and the SAB plates were incubated at 20 to 35° C. for 48 hours. Two isolates of Staphylococcus pseudintermedins of different origin were used.
(§9) After incubation the plates were examined to determine the lowest concentration that inhibited growth of the microbe.
(§10) The concentrations were used to calculate the Fractional Inhibitory Concentration Index (FICI) which is a measure of synergism between the components in the combination. The FICI is calculated using the following equations:
(§11) FICMICONAZOLE=MICMICONAZOLE+PHMB/MICMICONAZOLE
(§12) FICPHMB=MICPHMB+MICONAZOLE/MICPHMB
(§13) FICI=FICMICONAZOLE+FICPHMB
(§14) FICI≦0.5 Indicates synergy between components
(§15) FICI>0.5-4.0 indicates no interaction between components
(§16) FICI>4.0 indicates antagonism between components

A further experiment deals with Candida albicans. In words: Agar dilution MIC and FICI (Example 2). The conditions noted are these: miconazole alone. It counts as cell-based. As for the experimental part: as §5, §6, §7, §8, §9, §10, §11, §12, §13, §14, §15, §16
Experiment [4] has as its system S. pseudintermedius isolates. Kind of experiment: Agar dilution MIC and FICI, isolates from dogs (Example 3). To be noted: miconazole alone. It is filed as cell-based, Staphylococcus pseudintermedius. The procedure: as §1
The test system of another experiment is Malassezia pachydermatis. In words: Well diffusion, zone of inhibition on Sabouraud dextrose agar. It is filed as cell-based. The procedure:
as §2, §3, §4

As for `Clc1ccc(COC(Cn2ccnc2)c2ccc(Cl)cc2Cl)c(Cl)c1` (centres unmarked) [miconazole], the MIC miconazole in experiment [1] (isolate 1) was 0.00003%; in experiment [1] (isolate 2), 0.00006%; in experiment [1] (isolate 3) it was 0.000015%; in experiment [4] (isolate 1), 0.00012%; in experiment [4] (isolate 2), 0.00012%; in experiment [4] (isolate 3), 0.00012%. The MIC miconazole in experiment [4] (isolate 4), in experiment [4] (isolate 5), in experiment [4] (isolate 6), in experiment [4] (isolate 7) and in experiment [4] (isolate 8) was 0.00012% throughout. Further, the “Zone of Inhibition” value in experiment [2] (Miconazole concentration 0.0009%) is 14-17 mm; in experiment [2] (Miconazole concentration 0.0019%) it was 14-16 mm; in experiment [2] (Miconazole concentration 0.0039%), 17-18 mm; in the experiment on Malassezia pachydermatis (Miconazole concentration 0.0009%, 50 μL per well, 30 to 35° C. 48 hours) it was 25 mm. The “MIC Micon %” value in experiment [3] (miconazole alone, two isolates of different origin) amounted to 0.00012%; with Candida albicans, 0.00095%. In addition, in experiment [3] (used alone), the “concentration at which an antimicrobial effect begins” value is listed as “about 0.00012 wt %”.

On to `CC(O)CO` (centres unmarked) [propylene glycol], for which the “inhibition of microbial growth around the well” value in experiment [2] (50 μL propylene glycol per well) was “No zone of inhibition”; in the experiment with Malassezia pachydermatis (50 μL propylene glycol in 6 mm well, 30 to 35° C. 72 hours), “No zone of inhibition”.
